In patent US8912144B2, “Method for treating stroke via administration of NEP1-40 and inosine” (Children's Medical Center Corporation, priority 2003, dated 2014):

System: corticospinal neurons (CSNs/CSMNs)
Test: Laser-capture microdissection and Illumina microarray gene expression in corticospinal neurons contralateral to stroke
Assay type: in vivo, rat
Conditions: for Signal Intensity, Treatment after Stroke: Inosine: CSMNs contralateral to SMA infarct
Experimental: In a separate group of animals (n=20), layer V pyramidal cells of the sensorimotor cortex were retrogradely labeled by injecting Alexa-Fluor-488-conjugated cholera toxin B subunit (CTB; 300 U/μl in sterile saline) into the cervical spinal cord. For this, animals were anesthetized with a combination of ketamine and Domitor (medetomidine) and a laminectomy was performed at the cervical level of the spinal cord (C2-C4). CTB was stereotaxically delivered into four sites lateral to the corticospinal tract. Injections (1.3 μl) were spaced 1 mm apart on the rostro-caudal axis, and were made 0.5 mm to the left and right of the midline. After allowing two weeks for transport of the tracer, we performed either sham surgery with no treatment (n=6) or stroke surgery combined with saline (n=3) or inosine (n=4) treatment as described above. Seven days later, animals were decapitated under transient gas anesthesia, brains were removed and rinsed in cold RPMI medium, and a tissue block containing the sensorimotor cortex was dissected and placed in OCT Tissue Tek Medium (Sakura Finetek USA Inc., CA) on dry ice within five minutes of death. Ten μm sections were cut onto precleaned Gold Seal RITE-ON glass slides (Gold Seal Prod-ucts, Portsmouth, N.H.), placed on dry ice, and rapidly stored at −80° C.
Slide-mounted sections were thawed and dehydrated in RNAse-free ethanol gradients and xylene. Retro-gradely labeled, fluorescent cortical pyramidal cells in the undamaged hemisphere were individually captured using the Arcturus VERITAS system. ≧500 cells were collected from each animal and stored in Arcturus extraction buffer at −80° C. Total RNA was extracted from cells using the Micro-to-Midi TotalRNA Purification System (Invitrogen, Carlsbad Calif.) and double-amplified using the TargetAmp 2-Round Aminoallyl-aRNA Amplification kit 1.0 (Epicentre, Madison, Wis.). Amplified RNA was checked for average fragment length using the Agilent RNA 6000 Nano LabChip kit (Agilent Technologies, Santa Clara, Calif.) and then biotinylated and hybridized (1 μg) on Illumina RatRef-12 Expression BeadChip arrays (Illumina, San Diego Calif.), querying the expression of >22,000 RefSeq-curated rat transcripts. Results were obtained from a total of 15 samples representing 6 untreated controls, 4 animals with stroke treated with saline and 5 animals with stroke treated with inosine. Slides were processed and scanned with Illumina BeadStation platform according to the manufacturer protocol.
Raw data was analyzed using Bioconductor packages (www.bioconductor.org, (Gentleman et al., 2004)). Low level quality-control analysis was performed using inter-array Pearson correlation and clustering based on variance. Two arrays (1 saline and 1 inosine-treated) were outliers and were excluded from the analysis. Data was normalized using quantile normalization, and analysis of differential expression was performed using a linear model fitting (LIMMA package, (Smyth, 2005). Differentially expressed genes were classified according to gene ontology using Bioconductor packages and online tools (DAVID, http://david.abcc.ncifcrf.gov/). Pathway analysis was carried out using Ingenuity Pathway Analysis (Ingenuity Systems, www.ingenuity.com).

[1] = ILMN_161110, similar to myo-inositol 1-phosphate synthase A1

OC[C@H]1O[C@@H](n2cnc3c(O)ncnc32)[C@H](O)[C@@H]1O [inosine]
Fold-Induction Stroke, ino vs. cntrl, Rpl31 (ILMN_70426): 0.90
Signal Intensity, Rpl31 (ILMN_70426, inosine after stroke): 831
Fold-Induction Stroke, ino vs. cntrl [1]: 2.90
Signal Intensity Inosine [1]: 3241
Fold-Induction Stroke, ino vs. cntrl (Ifitm3 ILMN_48088): 2.71
Signal Intensity Inosine (Ifitm3 ILMN_48088): 2516
Fold-Induction Stroke, ino vs. cntrl (Igfbp2 ILMN_54332): 3.97
Signal Intensity Inosine (Igfbp2 ILMN_54332): 3801
Fold-Induction Stroke, ino vs. cntrl (Ing4 ILMN_54994): 1.01
Signal Intensity Inosine (Ing4 ILMN_54994): 1169
Fold-Induction Stroke, ino vs. cntrl (Irf3 ILMN_51700): 2.92
Signal Intensity Inosine (Irf3 ILMN_51700): 12720
Fold-Induction Stroke, ino vs. cntrl (LOC291847 ILMN_62527): 1.32
Signal Intensity Inosine (LOC291847 ILMN_62527): 558
Fold-Induction Stroke, ino vs. cntrl (LOC294337 ILMN_68161): 2.56
Signal Intensity Inosine (LOC294337 ILMN_68161): 2622
Fold-Induction Stroke, ino vs. cntrl (LOC295941 ILMN_58921): 1.07
Signal Intensity Inosine (LOC295941 ILMN_58921): 3970
Fold-Induction Stroke, ino vs. cntrl (LOC300149 ILMN_48288): 1.34
Signal Intensity Inosine (LOC300149 ILMN_48288): 2789
Fold-Induction Stroke, ino vs. cntrl (LOC301122 ILMN_62401): 1.22
Signal Intensity Inosine (LOC301122 ILMN_62401): 925
Fold-Induction Stroke, ino vs. cntrl (LOC303702 ILMN_64738): 1.72
Signal Intensity Inosine (LOC303702 ILMN_64738): 899
Fold-Induction Stroke, ino vs. cntrl (LOC303790 ILMN_56510): 1.45
Signal Intensity Inosine (LOC303790 ILMN_56510): 2300
Fold-Induction Stroke, ino vs. cntrl (LOC304116 ILMN_63846): 0.99
Signal Intensity Inosine (LOC304116 ILMN_63846): 393
Fold-Induction Stroke, ino vs. cntrl (LOC305076 ILMN_60367): 1.56
Signal Intensity Inosine (LOC305076 ILMN_60367): 824
Fold-Induction Stroke, ino vs. cntrl (LOC305633 ILMN_51277): 2.99
Signal Intensity Inosine (LOC305633 ILMN_51277): 2047
Fold-Induction Stroke, ino vs. cntrl (LOC317579 ILMN_58258): 1.52
Signal Intensity Inosine (LOC317579 ILMN_58258): 733
Fold-Induction Stroke, ino vs. cntrl (LOC360627 ILMN_61895): 2.62
Signal Intensity Inosine (LOC360627 ILMN_61895): 1064
Fold-Induction Stroke, ino vs. cntrl (LOC360644 ILMN_48641): 3.68
Signal Intensity Inosine (LOC360644 ILMN_48641): 602
Fold-Induction Stroke, ino vs. cntrl (LOC361080 ILMN_61547): 0.40
Signal Intensity Inosine (LOC361080 ILMN_61547): 295
Fold-Induction Stroke, ino vs. cntrl (LOC362015 ILMN_62932): 1.37
Signal Intensity Inosine (LOC362015 ILMN_62932): 1285
Fold-Induction Stroke, ino vs. cntrl (LOC362304 ILMN_53204): 1.34
Signal Intensity Inosine (LOC362304 ILMN_53204): 5067
Fold-Induction Stroke, ino vs. cntrl (LOC362857 ILMN_64100): 0.43
Signal Intensity Inosine (LOC362857 ILMN_64100): 1081
Fold-Induction Stroke, ino vs. cntrl (LOC497739 ILMN_66205): 1.65
Signal Intensity Inosine (LOC497739 ILMN_66205): 4864
Fold-Induction Stroke, ino vs. cntrl (LOC497841 ILMN_51249): 11.52
Signal Intensity Inosine (LOC497841 ILMN_51249): 2841
Fold-Induction Stroke, ino vs. cntrl (LOC498185 ILMN_58236): 2.76
Signal Intensity Inosine (LOC498185 ILMN_58236): 804
Fold-Induction Stroke, ino vs. cntrl (LOC498276 ILMN_65617): 2.56
Signal Intensity Inosine (LOC498276 ILMN_65617): 3014
Fold-Induction Stroke, ino vs. cntrl (LOC498279 ILMN_65961): 4.07
Signal Intensity Inosine (LOC498279 ILMN_65961): 8892
Fold-Induction Stroke, ino vs. cntrl (LOC498335 ILMN_53325): 25.26
Signal Intensity Inosine (LOC498335 ILMN_53325): 3310
Fold-Induction Stroke, ino vs. cntrl (LOC498614 ILMN_54303): 1.05
Signal Intensity Inosine (LOC498614 ILMN_54303): 2373
Fold-Induction Stroke, ino vs. cntrl (LOC498957 ILMN_67281): 1.28
Signal Intensity Inosine (LOC498957 ILMN_67281): 1081
Fold-Induction Stroke, ino vs. cntrl (LOC499244 ILMN_49099): 2.24
Signal Intensity Inosine (LOC499244 ILMN_49099): 14824
Fold-Induction Stroke, ino vs. cntrl (LOC500226 ILMN_54711): 2.10
Signal Intensity Inosine (LOC500226 ILMN_54711): 7922
Fold-Induction Stroke, ino vs. cntrl (LOC500804 ILMN_61346): 2.35
Signal Intensity Inosine (LOC500804 ILMN_61346): 5507
Fold-Induction Stroke, ino vs. cntrl (Lap3 ILMN_57870): 1.01
Signal Intensity Inosine (Lap3 ILMN_57870): 918
Fold-Induction Stroke, ino vs. cntrl (Lcpl ILMN_58058): 2.76
Signal Intensity Inosine (Lcpl ILMN_58058): 1306
Fold-Induction Stroke, ino vs. cntrl (Lgals3bp ILMN_60037): 3.00
Signal Intensity Inosine (Lgals3bp ILMN_60037): 629
Fold-Induction Stroke, ino vs. cntrl (Man2b1 ILMN_65999): 2.64
Signal Intensity Inosine (Man2b1 ILMN_65999): 1676
Fold-Induction Stroke, ino vs. cntrl (Map2k6 ILMN_53013): 1.19
Signal Intensity Inosine (Map2k6 ILMN_53013): 3981
Fold-Induction Stroke, ino vs. cntrl (Mt1a ILMN_53575): 3.68
Signal Intensity Inosine (Mt1a ILMN_53575): 3267
Fold-Induction Stroke, ino vs. cntrl (Nfkbia ILMN_49934): 2.69
Signal Intensity Inosine (Nfkbia ILMN_49934): 3250
Fold-Induction Stroke, ino vs. cntrl (Oplah ILMN_65374): 2.05
Signal Intensity Inosine (Oplah ILMN_65374): 2440
Fold-Induction Stroke, ino vs. cntrl (Pfc ILMN_56164): 2.02
Signal Intensity Inosine (Pfc ILMN_56164): 1375
Fold-Induction Stroke, ino vs. cntrl (Pkn1 ILMN_63766): 1.69
Signal Intensity Inosine (Pkn1 ILMN_63766): 2365
Fold-Induction Stroke, ino vs. cntrl (Plcd1 ILMN_50502): 1.90
Signal Intensity Inosine (Plcd1 ILMN_50502): 1514
Fold-Induction Stroke, ino vs. cntrl (Plek ILMN_57609): 2.99
Signal Intensity Inosine (Plek ILMN_57609): 1937
Fold-Induction Stroke, ino vs. cntrl (Pnck ILMN_66828): 1.65
Signal Intensity Inosine (Pnck ILMN_66828): 8946
Fold-Induction Stroke, ino vs. cntrl (Polrmt ILMN_59207): 1.52
Signal Intensity Inosine (Polrmt ILMN_59207): 1219
Fold-Induction Stroke, ino vs. cntrl (Ppp1r14b ILMN_59774): 2.26
Signal Intensity Inosine (Ppp1r14b ILMN_59774): 2071
Fold-Induction Stroke, ino vs. cntrl (Ptpn6 ILMN_61314): 3.52
Signal Intensity Inosine (Ptpn6 ILMN_61314): 957
Fold-Induction Stroke, ino vs. cntrl (Ptprr ILMN_55987): 1.04
Signal Intensity Inosine (Ptprr ILMN_55987): 676
Fold-Induction Stroke, ino vs. cntrl (RGD1309326 ILMN_60781): 1.43
Signal Intensity Inosine (RGD1309326 ILMN_60781): 2333
Fold-Induction Stroke, ino vs. cntrl (RT1-Da ILMN_59933): 11.11
Signal Intensity Inosine (RT1-Da ILMN_59933): 3072
Fold-Induction Stroke, ino vs. cntrl (Rbl2 ILMN_59080): 1.30
Signal Intensity Inosine (Rbl2 ILMN_59080): 1060
Fold-Induction Stroke, ino vs. cntrl (Rfx1 ILMN_50833): 1.51
Signal Intensity Inosine (Rfx1 ILMN_50833): 4995
Fold-Induction Stroke, ino vs. cntrl (Rhoj ILMN_58882): 2.67
Signal Intensity Inosine (Rhoj ILMN_58882): 588
Fold-Induction Stroke, ino vs. cntrl (Rhot2 ILMN_62537): 1.68
Signal Intensity Inosine (Rhot2 ILMN_62537): 1112
Fold-Induction Stroke, ino vs. cntrl (Rnaset2 ILMN_55431): 2.31
Signal Intensity Inosine (Rnaset2 ILMN_55431): 7227
Fold-Induction Stroke, ino vs. cntrl (Serpinb1a ILMN_57422): 2.68
Signal Intensity Inosine (Serpinb1a ILMN_57422): 589
Fold-Induction Stroke, ino vs. cntrl (Serping1 ILMN_60046): 3.19
Signal Intensity Inosine (Serping1 ILMN_60046): 1251
Fold-Induction Stroke, ino vs. cntrl (Sgpp1 ILMN_57304): 0.44
Signal Intensity Inosine (Sgpp1 ILMN_57304): 316
Fold-Induction Stroke, ino vs. cntrl (Slc9a1 ILMN_53105): 1.32
Signal Intensity Inosine (Slc9a1 ILMN_53105): 2100
Fold-Induction Stroke, ino vs. cntrl (Slc35b4 ILMN_68450): 1.41
Signal Intensity Inosine (Slc35b4 ILMN_68450): 430
Fold-Induction Stroke, ino vs. cntrl (Smoc2 ILMN_60870): 3.79
Signal Intensity Inosine (Smoc2 ILMN_60870): 1123
Fold-Induction Stroke, ino vs. cntrl (Soc ILMN_57817): 1.36
Signal Intensity Inosine (Soc ILMN_57817): 1341
Fold-Induction Stroke, ino vs. cntrl (Srebf1 ILMN_51834): 1.47
Signal Intensity Inosine (Srebf1 ILMN_51834): 1069
Fold-Induction Stroke, ino vs. cntrl (Tcirg1 ILMN_52949): 2.81
Signal Intensity Inosine (Tcirg1 ILMN_52949): 2173
Fold-Induction Stroke, ino vs. cntrl (Timp1 ILMN_62559): 3.57
Signal Intensity Inosine (Timp1 ILMN_62559): 2293
Fold-Induction Stroke, ino vs. cntrl (Tle2 ILMN_54011): 3.03
Signal Intensity Inosine (Tle2 ILMN_54011): 2295
Fold-Induction Stroke, ino vs. cntrl (Tm6p1 ILMN_57902): 1.99
Signal Intensity Inosine (Tm6p1 ILMN_57902): 1532
Fold-Induction Stroke, ino vs. cntrl (Trim39 ILMN_54591): 1.35
Signal Intensity Inosine (Trim39 ILMN_54591): 1351
Fold-Induction Stroke, ino vs. cntrl (Unc93b ILMN_53114): 2.10
Signal Intensity Inosine (Unc93b ILMN_53114): 600
Signal Intensity, Treatment after Stroke: Inosine (gene P2rxl1 (ILMN_68585)): 246
Signal Intensity, Treatment after Stroke: Inosine (gene Tm7sf2 (ILMN_58100)): 419
